According to US8524917B2, “6-substituted indole-3-carboxylic acid amide compounds having sphingosine-1-phosphate (S1P) receptor antagonist biological activity” (Allergan, Inc., priority 2007, dated 2013):
Read-outs that look alike come from different tables or passages of the source.

Experiments:
human S1P3 receptor = human S1P3 receptor (Homo sapiens (Human), UniProt Q99500); experiment: Activation or block of activation of human S1P3 receptor, Ca+2 FLIPR assay; type: cell-based
Summary of the method: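 T24 cells stably expressing human S1P3, grown in charcoal-treated FBS, dye-loaded and read on FLIPR for calcium after ligand addition in HBSS/20 mM HEPES (1 s readings for 75 s, then every 10 s for 2.5 min). Agonist or antagonist mode; S1P positive control in 4 mg/ml fatty-acid-free BSA. IC50 by Levenberg–Marquardt regression.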

perfused porcine eyes = conditions: by altering paracellular permeability, IOVS 45, 2263, 2004; cited from earlier work
[1] = T24 cells stably expressing the human S1P3 receptor, FLIPR Ca+2 response, 0.61 nM to 10,000 nM, read-out: S1P3 IC50
[2] = T24 cells stably expressing the human S1P3 receptor, value in brackets

Sequence of human S1P3 receptor (Q99500 whole entry): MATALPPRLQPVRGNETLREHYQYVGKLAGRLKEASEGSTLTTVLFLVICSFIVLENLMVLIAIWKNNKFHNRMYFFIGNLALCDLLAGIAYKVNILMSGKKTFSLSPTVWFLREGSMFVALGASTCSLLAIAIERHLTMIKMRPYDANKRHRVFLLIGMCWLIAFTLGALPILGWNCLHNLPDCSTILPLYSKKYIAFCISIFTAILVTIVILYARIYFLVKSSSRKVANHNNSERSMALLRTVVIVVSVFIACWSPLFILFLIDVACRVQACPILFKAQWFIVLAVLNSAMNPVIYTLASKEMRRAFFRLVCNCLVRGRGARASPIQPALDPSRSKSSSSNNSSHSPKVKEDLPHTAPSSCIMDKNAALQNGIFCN

Row | Compound | IC50 (human S1P3 receptor; [1]) | S1P3 (% inh) (human S1P3 receptor; [2]) | other results
1 | CC(C)COc1ccc2c(C(=O)NCc3cncc(F)c3)c(C(C)C)n(Cc3ccccn3)c2c1 [Compound 149, N-((5-Fluoropyridin-3-yl)methyl)-6-isobutoxy-2-isopropyl-1-(pyridin-2-ylmethyl)-1H-indole-3-carboxamide] | 29 nM | 100% | –
2 | CC(C)c1c(C(=O)NCc2ccc(F)c(F)c2)c2ccc(OC3CCCO3)cc2n1Cc1ccccn1 (stereo not drawn) [drawing 169] | 9 nM | 100% | –
3 | CC(C)c1c(C(=O)NCc2ccc(F)c(F)c2)c2ccc(CO)cc2n1Cc1ccccc1 [Compound 52, 1-Benzyl-N-(3,4-difluorobenzyl)-6-(hydroxymethyl)-2-isopropyl-1H-indole-3-carboxamide] | 2000 nM | 85% | –
4 | COCCOc1ccc2c(C(=O)NCc3ccc(F)c(F)c3)c(C(C)C)n(Cc3ccccc3)c2c1 [Compound 17, 1-Benzyl-N-(3,4-difluorobenzyl)-2-isopropyl-6-(2-methoxyethoxy)-1H-indole-3-carboxamide] | 6.5 nM | 99% | –
5 | [2H]C([2H])([2H])C([2H])(Oc1ccc2c(C(=O)NCc3ccc(F)c(F)c3)c(C(=C)C)n(Cc3ccccn3)c2c1)C([2H])([2H])[2H] [Compound 199, N-(3,4-Difluorobenzyl)-2-isopropenyl-6-isopropoxy-1-(pyridin-2-ylmethyl)-1H-indole-3-carboxamide-d7] | 51 nM | 100% | –
6 | CC(C)OC(=O)c1ccc2c(C(=O)NCc3ccc(F)c(F)c3)c(C(C)C)n(Cc3ccccc3)c2c1 | 45 nM | 99% | –
7 | CC(C)c1c(C(=O)NCc2ccc(F)c(F)c2)c2ccc(C3=NC(C)(C)CO3)cc2n1Cc1ccccc1 [Compound 71, 1-Benzyl-N-(3,4-difluorobenzyl)-6-(4,4-dimethyl-4,5-dihydrooxazol-2-yl)-2-isopropyl-1H-indole-3-carboxamide] | 47 nM | 97% | –
8 | CC(C)c1c(C(=O)NCc2ccc(F)cc2)c2ccc(C3=N[C@@H](C)CO3)cc2n1Cc1ccccn1 [Compound 86, (S)—N-(4-Fluorobenzyl)-2-isopropyl-6-(4-methyl-4,5-dihydrooxazol-2-yl)-1-(pyridin-2-ylmethyl)-1H-indole-3-carboxamide] | 48 nM | 100% | –
9 | CC(C)c1c(C(=O)NCc2ccc(F)c(F)c2)c2ccc(N(C)C3CCCC3)cc2n1Cc1ccccc1 [Compound 189, 1-Benzyl-6-(cyclopentyl(methyl)amino)-N-(3,4-difluorobenzyl)-2-isopropyl-1H-indole-3-carboxamide] | 87 nM | 100% | –
10 | CC(C)Oc1ccc2c(C(=O)NCc3ccc(F)c(F)c3)c(C(C)C)n(Cc3ccccc3)c2c1 [Compound 11, 1-Benzyl-N-(3,4-difluorobenzyl)-6-isopropoxy-2-isopropyl-1H-indole-3-carboxamide] | – | – | Kb (human S1P3 receptor; T24 cells stably expressing the human S1P3 receptor, second concentration in the cell, read-out: S1P3 Kb): 2 nM
11 | CCCOc1ccc2c(C(=O)NCc3cccnc3)c(C(C)C)n(Cc3ccccn3)c2c1 | 1200 nM | 99% | –
12 | CC(C)c1c(C(=O)NCc2cc(F)cc(F)c2)c2ccc(NC3CCCC3)cc2n1Cc1ccccc1 [Compound 191, 1-Benzyl-6-(cyclopentylamino)-N-(3,5-difluorobenzyl)-2-isopropyl-1H-indole-3-carboxamide] | 38 nM | 99% | –
13 | COc1ccc2c(C(=O)NCc3ccc(F)c(F)c3)c(C(C)C)n(Cc3ccccc3)c2c1 [Compound 7, 1-Benzyl-N-(3,4-difluorobenzyl)-2-isopropyl-6-methoxy-1H-indole-3-carboxamide] | 560 nM | 98% | –
14 | C#CCOc1ccc2c(C(=O)NCc3ccc(F)c(F)c3)c(C(C)C)n(Cc3ccccn3)c2c1 | 324 nM | 99% | –
15 | CC(C)c1c(C(=O)NCc2ccc(F)c(F)c2)c2ccc(NC3CCOC3)cc2n1Cc1ccccc1 (stereo not drawn) [Compound 126, 1-Benzyl-N-(3,4-difluorobenzyl)-2-isopropyl-6-(tetrahydrofuran-3-ylamino)-1H-indole-3-carboxamide] | 177 nM | 100% | –
16 | CC(C)c1c(C(=O)NCc2ccc(F)c(F)c2)c2ccc(C3=N[C@H](C)CO3)cc2n1Cc1ccccc1 [Compound 74, (R)-1-Benzyl-N-(3,4-difluorobenzyl)-2-isopropyl-6-(4-methyl-4,5-dihydrooxazol-2-yl)-1H-indole-3-carboxamide] | 49 nM | 99% | –
17 | CCCNC(=O)c1ccc2c(C(=O)NCc3ccc(F)c(F)c3)c(C(C)C)n(Cc3ccccc3)c2c1 | 146 nM | 99% | –
18 | CC(C)c1c(C(=O)NCc2ccc(F)c(F)c2)c2ccc(OCc3ncco3)cc2n1Cc1ccccc1 [Compound 131, 1-Benzyl-N-(3,4-difluorobenzyl)-2-isopropyl-6-(1,3-oxazol-2-ylmethoxy)-1H-indole-3-carboxamide] | 890 nM | 96% | –

Row | Compound | IC50 (human S1P3 receptor; [1]) | S1P3 (% inh) (human S1P3 receptor; [2]) | other results
19 | CC(C)c1c(C(=O)NCc2ccc(F)c(F)c2)c2ccc(OC3CCOC3)cc2n1Cc1ccccc1 (stereo not drawn) [Compound 19, 1-Benzyl-N-(3,4-difluorobenzyl)-2-isopropyl-6-(tetrahydrofuran-3-yloxy)-1H-indole-3-carboxamide] | 6 nM | 100% | –
20 | CCOC(=O)c1ccc2c(C(=O)NCc3ccc(F)cc3)c(C(C)C)n(Cc3ccccc3)c2c1 | 43 nM | 99% | –
21 | CC[C@H]1COC(c2ccc3c(C(=O)NCc4cncc(F)c4)c(C(C)C)n(Cc4ccccc4)c3c2)=N1 [Compound 73, (S)-1-Benzyl-6-(4-ethyl-4,5-dihydrooxazol-2-yl)-N-((5-fluoropyridin-3-yl)methyl)-2-isopropyl-1H-indole-3-carboxamide] | 35 nM | 100% | –
22 | CC(C)c1c(C(=O)NCc2ccc(F)c(F)c2)c2ccc(OC3CCC3)cc2n1Cc1cccnc1 [Compound 165, 6-Cyclobutoxy-N-(3,4-difluorobenzyl)-2-isopropyl-1-(pyridin-3-ylmethyl)-1H-indole-3-carboxamide] | 7 nM | 100% | –
23 | CCOC(=O)c1ccc2c(C(=O)NCc3cccnc3)c(C(C)C)n(Cc3ccccc3)c2c1 | – | – | IC50 (human S1P3 receptor): 187 nM; S1P3 (% inh) (human S1P3 receptor): 187 nM (95) %
24 | CC(C)Oc1ccc2c(C(=O)NCc3ccc(F)c(F)c3)c(CO)n(Cc3ccccn3)c2c1 [Compound 106, N-(3,4-Difluorobenzyl)-2-(hydroxymethyl)-6-isopropoxy-1-(pyridin-2-ylmethyl)-1H-indole-3-carboxamide] | 689 nM | 96% | –
25 | CC(C)c1c(C(=O)NCc2ccc(F)c(F)c2)c2ccc(Oc3ncc(Br)s3)cc2n1Cc1ncco1 [Compound 215, 6-(5-Bromothiazol-2-yloxy)-N-(3,4-difluorobenzyl)-2-isopropyl-1-(oxazol-2-ylmethyl)-1H-indole-3-carboxamide] | 23 nM | 99% | –
26 | CC(C)Oc1ccc2c(C(=O)NCc3cccnc3)c(C(C)C)n(Cc3ccccn3)c2c1 | – | ND (98) % | –
27 | CC(C)c1c(C(=O)NCc2ccc(F)c(F)c2)c2ccc(OC3CCCO3)cc2n1Cc1ccccn1 (stereo not drawn) [drawing 164] | 9 nM | 100% | –
28 | CC(C)c1c(C(=O)NCc2ccc(F)c(F)c2)c2ccc(OC(=O)C(C)(C)C)cc2n1Cc1ccccc1 [Compound 22, 1-Benzyl-3-(3,4-difluorobenzylcarbamoyl)-2-isopropyl-1H-indol-6-yl Pivalate] | – | – | S1P3 (% inh) (human S1P3 receptor): 4 nM (99) %; IC50 (human S1P3 receptor; read-out: S1P3 IC50): 4 nM
29 | CC(C)c1c(C(=O)NCc2ccc(F)c(F)c2)c2ccc(Oc3nccs3)cc2n1Cc1ccccn1 [Compound 150, N-(3,4-Difluorobenzyl)-2-isopropyl-1-(pyridin-2-ylmethyl)-6-(thiazol-2-yloxy)-1H-indole-3-carboxamide] | 5 nM | 100% | –
30 | CC(C)C(=O)Nc1ccc2c(C(=O)NCc3ccc(F)c(F)c3)c(C(C)C)n(Cc3ccccc3)c2c1 [Compound 127, 1-Benzyl-N-(3,4-difluorobenzyl)-6-isobutyramido-2-isopropyl-1H-indole-3-carboxamide] | 890 nM | 97% | –
31 | CON=C(C)c1c(C(=O)NCc2ccc(F)c(F)c2)c2ccc(OC(C)C)cc2n1Cc1ccccn1 (stereo in doubt) [Compound 111, (E)-N-(3,4-Difluorobenzyl)-6-isopropoxy-2-(1-(methoxyimino)ethyl)-1-(pyridin-2-ylmethyl)-1H-indole-3-carboxamide] | – | – | S1P3 (% inh) (human S1P3 receptor): 263 nM (100) %; IC50 (human S1P3 receptor; read-out: S1P3 IC50): 263 nM
32 | CCCCCCCCCCCCC/C=C/[C@@H](O)[C@@H](N)COP(=O)(O)O [Compound S1P, Sphingosine-1-Phosphate] | – | – | decrease of outflow facility (perfused porcine eyes): > 30%
33 | CC(C)Oc1ccc2c(C(=O)NCc3ccc(F)c(F)c3)c(C[N+]3(C)CCCC3)n(Cc3ccccn3)c2c1.[I-] [Compound 176, 1-((3-(3,4-Difluorobenzylcarbamoyl)-6-isopropoxy-1-(pyridin-2-ylmethyl)-1H-indol-2-yl)methyl)-1-methylpyrrolidinium iodide] | 7600 nM | 98% | –
34 | CCOC(=O)c1ccc2c(C(=O)NCc3cccc(F)c3)c(C(C)C)n(Cc3ccccn3)c2c1 | – | – | IC50 (human S1P3 receptor): 174 nM; S1P3 (% inh) (human S1P3 receptor): 174 nM (100) %
35 | CC(C)c1c(C(=O)NCc2ccc(F)c(F)c2)c2ccc(NC3CCCC3)cc2n1Cc1ccccc1 [Compound 130, 1-Benzyl-6-(cyclopentylamino)-N-(3,4-difluorobenzyl)-2-isopropyl-1H-indole-3-carboxamide] | 44 nM | 99% | –
36 | CC(C)c1c(C(=O)NCc2ccc(F)c(F)c2)c2ccc(OCc3ccccc3)cc2n1Cc1ccccc1 [Compound 15, 1-Benzyl-6-(benzyloxy)-N-(3,4-difluorobenzyl)-2-isopropyl-1H-indole-3-carboxamide] | – | – | S1P3 (% inh) (human S1P3 receptor): 260 nM (100) %; IC50 (human S1P3 receptor; read-out: S1P3 IC50): 260 nM
